In ChEMBL document CHEMBL3045346, “In vivo evaluation of substituted 2,3-diaryl acrylophenone amide derivatives as anti-implantation agents” (2009):
Activity calls are given as the source filed them. The calls are words filed in the database; no cut-off is given here.

tested on: Rattus norvegicus; test: Anti-implanatation activity in female Rattus norvegicus Sprague-Dawley (rat) assessed as implantation in uterine horns at 10 mg/kg, po administered on day 1 to 5 post-coitum measured on day 10 of pregnancy by laparotomy; type: functional

Compound | Activity
COc1ccc2c(c1)OC(C)(C)[C@H](c1ccccc1)[C@H]2c1ccc(OCCN2CCCC2)cc1 (relative stereo) [REL-ORMELOXIFENE] | 100%
CCCNC(=O)COc1ccc(/C=C(/C(=O)c2ccc(OC)cc2)c2ccccc2)cc1 | inactive
CCCCCCCCCCCCNC(=O)COc1ccc(/C=C(/C(=O)c2ccc(OC)cc2)c2ccc(OC)cc2)cc1 | inactive
CCCCN(C)C(=O)COc1ccc(/C=C(/C(=O)c2ccc(OC)cc2)c2ccccc2)cc1 | 67%
CCCCCCCCCCCCNC(=O)COc1ccc(/C=C(/C(=O)c2ccc(OC)cc2)c2ccccc2)cc1 | 67%
CCCCCCCCNC(=O)COc1ccc(/C=C(/C(=O)c2ccc(OC)cc2)c2ccccc2)cc1 | 33%
CCCCNC(=O)COc1ccc(/C=C(/C(=O)c2ccc(OC)cc2)c2ccccc2)cc1 | inactive
CCCCNC(=O)COc1ccc(/C=C(/C(=O)c2ccc(OC)cc2)c2ccc(OC)cc2)cc1 | 67%
CCCCN(C)C(=O)COc1ccc(/C=C(/C(=O)c2ccc(OC)cc2)c2ccc(OC)cc2)cc1 | inactive
CCCCCCN(CC)C(=O)COc1ccc(/C=C(/C(=O)c2ccc(OC)cc2)c2ccccc2)cc1 | 33%
CCCCCCCCCNC(=O)COc1ccc(/C=C(/C(=O)c2ccc(OC)cc2)c2ccccc2)cc1 | inactive
CCCCCCCCNC(=O)COc1ccc(/C=C(/C(=O)c2ccc(OC)cc2)c2ccc(OC)cc2)cc1 | 100%
